Results from patent publication US20150011566A1, “N-PHENYLPIPERAZINE DERIVATIVES THAT ARE ANTAGONISTS OF A1A, A1D ADRENOCEPTORS AND 5-HT1A RECEPTORS FOR THE TREATMENT OF BENIGN PROSTATE HYPERPLASIA, PHARMACEUTICAL COMPOSITIONS CONTAINING THE SAME” (UNIVERSIDADE FEDERAL DO RIO DE JANEIRO-UFRJ, priority 2012, published 2015).
Where two headings read alike, the source gives them in different places.

Tests used:
α1D adrenoceptors = molecular target: T1, α1D adrenoceptors (Rattus norvegicus, UniProt P23944); assay: Phenylephrine-induced contraction inhibition in rat aorta (isometric contraction, Schild KB); format: cell-based; set-up: CR: concentration ratio CR = EC′50/EC50 (with/without antagonist); conditions: for log KB ± EPM (M) / Kb: Schild equation; for CR ± EPM: ratio of EC50 in presence and absence of test substance
T1 construct: the rat thoracic aorta corresponds to a tissue expressing mainly α1D-adrenoceptors; from tissue; host or cells: rat thoracic aorta rings
T1 sequence (P23944 1-561): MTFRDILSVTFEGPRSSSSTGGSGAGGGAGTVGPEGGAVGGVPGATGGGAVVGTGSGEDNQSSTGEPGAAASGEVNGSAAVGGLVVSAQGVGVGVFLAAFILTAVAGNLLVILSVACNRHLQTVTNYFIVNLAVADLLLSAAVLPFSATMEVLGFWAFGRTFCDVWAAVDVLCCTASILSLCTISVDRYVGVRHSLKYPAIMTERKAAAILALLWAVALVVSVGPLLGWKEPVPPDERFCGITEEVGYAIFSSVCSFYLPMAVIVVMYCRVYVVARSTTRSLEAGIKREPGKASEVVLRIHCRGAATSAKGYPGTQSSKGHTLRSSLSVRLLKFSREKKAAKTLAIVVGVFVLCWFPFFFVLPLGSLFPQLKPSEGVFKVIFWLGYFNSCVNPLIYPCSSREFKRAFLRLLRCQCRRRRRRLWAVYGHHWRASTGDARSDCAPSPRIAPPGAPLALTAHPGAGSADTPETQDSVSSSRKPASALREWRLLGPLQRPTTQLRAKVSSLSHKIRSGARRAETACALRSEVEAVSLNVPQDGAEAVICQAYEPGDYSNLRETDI
Method: Isometric contraction assays were performed using Male Wistar rats, aged 2.5-3 months euthanized as described above. The thoracic aorta (tissue enriched in functional α1D adrenergic receptors) was removed, free from adjacent connective and adipose tissues cut in 3 mm segments. […] The aort segments were then subjected to a preload of 20 mN per 60 minutes. After recovery of tissues maintained for 1 hour at rest, it was performed a contraction induced by phenylephrine (PE) 1 μM (α1 adrenergic receptors selective agonist). In this plateau contraction, in order to promote endothelium-dependent relaxation resulting from the activation of the enzyme endothelial nitric oxide synthase (eNOS) and subsequent release of nitric oxide (NO), acetylcholine 1 μM was added. Rings that relaxed at least 80% were considered to have intact endothelium, were used.
Then the preparation was washed and allowed to stand for 1 hour in order to recover the tissue. Then it was performed cumulative curves to phenylephrine (10^−9 to 10^−5 M) in the presence of propranolol 1 μM (β-adrenoceptor blocker receptors) before and after incubation for 1 hour of the LDT's at 10 or 50 nM. In parallel, a temporal control was performed to rule out any artifacts on the measured contraction, where was added only the vehicle (ultrapure water Milli Q®) instead of the substance to be tested. Strictly following the same protocol as the other tanks wherein it was added the LDT's.
The data were scanned in MacLab 8S system connected to the isometric tension transducer Grass FT-03, which recorded the voltage variation in milinewtons (mN) generated throughout the analysis. The digitized data were then analyzed by Chart 3.4/s software program (MacLab, Inc., USA). In the pharmacological screening process, the initial concentration of the used LDT's was 50 nM, which is considered as cut concentration, i.e., substances that have no effect at this concentration would not investigated in this test. […] The ratio of the EC50 value in these two conditions (with and without LDT) matches the third parameter, called “concentration ratio” (or RC).
log(CR−1)=log [B]−log KB (Equation 1)
Where CR=concentration ratio (EC′50/EC50); [B]=‘B’ antagonist concentration; KB=equilibrium dissociation constant of the antagonist ‘B’.
With this in view, the functional tests of contraction in isolated organ model were performed using these tissues. […] Similarly, targeting to rule out any artifacts on the measured contraction, a time control was performed where only the vehicle was added (ultrapure Mili Q® water) in place of the substance to be tested, strictly following the same protocol as the other vats were added to the LDT's (FIG. 1).

5-HT1A receptors = molecular target: T2, 5-HT1A receptors (Rattus norvegicus, UniProt P19327); assay: Binding of [3H]-8-OH-DPAT to 5-HT1A receptors (rat hippocampus membranes)
T2 construct: Intrinsic Activity at Native 5-HT1A Receptors; from tissue; host or cells: rat hippocampus membranes
T2 sequence (P19327 1-422): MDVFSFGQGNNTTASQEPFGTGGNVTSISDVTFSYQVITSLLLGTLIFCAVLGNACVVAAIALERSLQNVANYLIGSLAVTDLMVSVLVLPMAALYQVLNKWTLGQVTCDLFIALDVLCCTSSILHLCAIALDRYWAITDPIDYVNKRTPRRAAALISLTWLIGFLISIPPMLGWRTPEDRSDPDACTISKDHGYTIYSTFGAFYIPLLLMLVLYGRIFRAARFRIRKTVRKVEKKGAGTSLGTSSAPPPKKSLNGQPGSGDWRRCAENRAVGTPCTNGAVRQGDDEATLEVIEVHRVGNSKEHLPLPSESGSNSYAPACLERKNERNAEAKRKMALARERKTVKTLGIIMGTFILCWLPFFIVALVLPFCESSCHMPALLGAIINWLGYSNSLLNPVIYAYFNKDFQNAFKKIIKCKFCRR
Method: Membrane preparations of rat hippocampus according to previously described by HALL et al (1985) and PEROUTKA (1986) were performed. The homogenization and centrifugation steps were performed identically to that described above for receptors α2A and 5-HT2A receptors.
The binding assays for the 5-HT1A receptors were performed as described previously in the literature and previously standardized in the laboratory through saturation experiments. […] (solvent for dilution of LDT's) for the determination of total binding, or 50 μL non-radioative serotonin at 10 μM to determine the non-specific binding (final volume of 500 μL). Assays were performed in triplicate. […] Assays were performed in triplicate.
After the incubation period, the reaction was stopped by adding 4 ml of ice-cold solution containing 5 mM Tris (pH 7.4), followed by vacuum filtration on glass fiber filter (GMF 3, Filtrak®) previously soaked with solution 0.5% polyethylenoimine. The filters were washed three times with 4 mL of ice-cold solution containing 5 mM Tris (pH 7.4) under vacuum to remove all free radioligand. Then the filters were dried and placed in vials containing 5 ml scintillation fluid (composition: 4% PPO, 0.1% POPOP w/p in toluene). The radioactivity retained on the filters was then determined in a liquid scintillation counter (Packard Tri-Carb 1600 TR). […] For these receptors were also determined the […] and Ki parameters.

[1] = Table 2, 50 nM (62-69) or 10 nM (70, 39)
[2] = Table 2, 50 nM (62-69) or 10 nM (70, 39), read-out: KB
[3] = Table 2, phenylephrine curve in presence of LTD 50 nM (62-69)
[4] = Table 8, Cheng-Prusoff, read-out: Ki
[5] = KB (nM), Table 1, test substance at 50 nM (a), 10 nM (b) or 2 nM (c)
[6] = Ki high (nM), Table 13, agonist radioligand [3H] 8-OH-DPAT
[7] = log KB ± EPM (M), Table 1, test substance at 50 nM (a), 10 nM (b) or 2 nM (c)
[8] = Table 2, phenylephrine curve in presence of LTD 10 nM (70 and 39)
[9] = Table 9, agonist radioligand [3H] 8-OH-DPAT, read-out: Ki high

| Compound | CR (α1D adrenoceptors; Table 2, LTD 50 nM (62-69)) | log KB ± EPM (M) (α1D adrenoceptors; [1]) | Kb (α1D adrenoceptors; [2]) [nM] | log CE50 ± EPM (M) LDT (α1D adrenoceptors; [3]) [M] | log IC50 (M) (5-HT1A receptors; Table 8) | Ki (5-HT1A receptors; [4]) [M] | Kb (α1D adrenoceptors; [5]) [nM] | IC50 (5-HT1A receptors) [nM] | also measured |
| --- | --- | --- | --- | --- | --- | --- | --- | --- | --- |
| CCCN1CCN(c2ccccc2OC)CC1 [LDT 63] | 3.1 | −7.59 ± 0.12b M | 31.5 | −6.80 ± 0.18 | −6.37 ± 0.03 M | 1.91e-07 |  |  |  |
| COc1cccc(CCN2CCN(c3ccccc3OC)CC2)c1 [LDT 3] |  |  |  |  |  |  | 1.78 | 2.75 | CR ± EPM (α1D adrenoceptors; 50 nM): 29.1 ± 1.8; Ki (5-HT1A receptors; KI (M), Table 7, Cheng-Prusoff): 1.13e-09 M; Ki (5-HT1A receptors; [6]): 1.79e-09 M |
| COc1ccc(CCN2CCN(c3ccccc3OC)CC2)cc1OC [LDT 5] |  |  |  |  |  |  | 0.57 | 6.17 | Kb (α1D adrenoceptors; [7]): 0.589 nM; CR ± EPM (α1D adrenoceptors; 10 nM): 18.5 ± 2.5; Ki (5-HT1A receptors; KI (M), Table 7, Cheng-Prusoff): 2.54e-09 M; Ki (5-HT1A receptors; [6]): 3.89e-09 M |
| COc1ccccc1N1CCN(CCc2ccccc2)CC1 [LDT 2] |  |  |  |  |  |  | 2.15 | 3.02 | Kb (α1D adrenoceptors; [7]): 3.09 nM; CR ± EPM (α1D adrenoceptors; 50 nM): 24.3 ± 8.7; Ki (5-HT1A receptors; KI (M), Table 7, Cheng-Prusoff): 1.24e-09 M |
| CCN1CCN(c2ccccc2)CC1 [LDT 39] |  | −6.85 ± 0.08a M | 141 |  | −5.93 ± 0.13 M | 5.2e-07 |  |  | CR (α1D adrenoceptors; Table 2, LTD 10 nM (70 and 39)): 76.7; log CE50 ± EPM (M) LDT (α1D adrenoceptors; [8]): −4.91 ± 0.05 M |
| CCCCCN1CCN(c2ccccc2OC)CC1 [LDT 65] | 7.0 |  |  | −5.89 ± 0.05 |  |  |  | 38 | Kb (α1D adrenoceptors; KB (nM), Table 2, 50 nM (62-69) or 10 nM (70, 39)): 8.3 nM; Ki (5-HT1A receptors; Ki (nM), Table 8, Cheng-Prusoff): 1.8e-08 M; Ki (5-HT1A receptors; Ki high (nM), Table 9, agonist radioligand [3H] 8-OH-DPAT): 1.8e-08 M |
| CCN1CCN(c2ccccc2O)CC1 [LDT 70] |  | −7.07 ± 0.08a M | 85.1 |  | −6.15 ± 0.08 M | 3.16e-07 |  |  | CR (α1D adrenoceptors; Table 2, LTD 10 nM (70 and 39)): 123.6; log CE50 ± EPM (M) LDT (α1D adrenoceptors; [8]): −4.86 ± 0.09 M |
| CCOc1ccccc1N1CCN(CCc2ccc3c(c2)OCO3)CC1 [LDT 8] |  |  |  |  |  |  | 0.16 | 0.0575 | Kb (α1D adrenoceptors; [7]): 0.166 nM; CR ± EPM (α1D adrenoceptors; 10 nM): 62.5 ± 15.5; Ki (5-HT1A receptors; [6]): 1.8e-11 M; Ki (5-HT1A receptors; Ki, text b157): 2.37e-11 M |
| COc1ccc(CCN2CCN(c3ccccc3OC)CC2)cc1 [LDT 4] |  |  |  |  |  |  | 3.14 | 2.4 | Kb (α1D adrenoceptors; [7]): 3.39 nM; CR ± EPM (α1D adrenoceptors; 50 nM): 16.9 ± 5.5; Ki (5-HT1A receptors; KI (M), Table 7, Cheng-Prusoff): 9.88e-10 M |
| COc1ccccc1N1CCN(CCC2CCCCC2)CC1 [LDT 6] |  |  |  |  |  |  |  |  | Ki (5-HT1A receptors; Table 7, Cheng-Prusoff, read-out: KI): 2.42e-10 M; IC50 (5-HT1A receptors; Table 7, read-out: log CI50 ± EPM (converted)): 0.589 nM |
| CCCCCCN1CCN(c2ccccc2OC)CC1 [LDT 66] | 32 | −8.78 ± 0.06a M | 1.66 | −5.29 ± 0.07 | −7.93 ± 0.20a M | 5e-09 |  |  | Ki (5-HT1A receptors; [9]): 5e-09 M |
| CCOc1ccccc1N1CCN(CCc2ccc(OC)c(OC)c2)CC1 [LDT 245] |  |  |  |  |  |  | 1.16 | 9.33 | Kb (α1D adrenoceptors; [7]): 1.17 nM; Ki (5-HT1A receptors; KI (M), Table 7, Cheng-Prusoff): 3.8e-09 M |
| CCN1CCN(c2ccccc2OC)CC1 [LDT 62] | 7 | −8.08 ± 0.02 M | 8.3 | −6.01 ± 0.06 | −6.47 ± 0.10 M | 1.47e-07 |  |  |  |
| CCCCN1CCN(c2ccccc2OC)CC1 [LDT 64] | 6.4 | −7.93 ± 0.13 M | 11.7 | −6.18 ± 0.08 | −6.72 ± 0.19 M | 8.4e-08 |  |  |  |
| CCOc1ccccc1N1CCN(CC)CC1 [LDT 69] | 6.9 | −8.06 ± 0.08 M | 8.71 | −5.87 ± 0.07 | −6.86 ± 0.30 M | 6.2e-08 |  |  |  |
| CCCCCCCN1CCN(c2ccccc2OC)CC1 [LDT 67] | 29.5 | −8.74 ± 0.08a M | 1.82 | −5.46 ± 0.08 | −7.42 ± 0.19b M | 1.8e-08 |  |  | Ki (5-HT1A receptors; [9]): 1.8e-08 M |
| CCCCCCCCN1CCN(c2ccccc2OC)CC1 [LDT 68] | 12.8 | −8.36 ± 0.05 M | 4.36 | −5.81 ± 0.06 | −7.70 ± 0.30b M | 9e-09 |  |  | Ki (5-HT1A receptors; [9]): 9e-09 M |
